Experimental findings from patent US8268845B2, “Tetrahydro- and dihydroquinazolinones” (Merck Patent GmbH, priority 2005, dated 2012) are described below.

Each structure is given as a SMILES string.

As a reminder, the melting point is the temperature, or range, at which the solid turns liquid. In turn, `O=c1[nH]c(N2CCNCC2)nc2c1CCCC2` yielded a melting point of 121 °C.
The result for `CN1CCN(c2nc3c(c(=O)[nH]2)CCCC3)CC1` reads 210 °C; that for `O=c1[nH]c(-c2ccc(Cl)cc2)nc2c1C=CCC2` [formula 6b, 2-(p-Chlorophenyl)-7,8-dihydroquinazolin-4(3H)-one], > 250 °C; that for `O=c1[nH]c(-c2ccccc2F)nc2c1C=CCC2` [formula 6d, 2-(o-Fluorophenyl)-7,8-dihydroquinazolin-4(3H)-one], 191 °C.
The molecule `CSc1nc2c(c(=O)[nH]1)C=CCC2` [formula 6g, 2-Methylthio-7,8-dihydroquinazolin-4(3H)-one] came in with a melting point of 214 °C.
The result for `O=c1[nH]c(-c2ccccc2)nc2c1CCCC2` [formula 7a, 2-Phenyl-5,6,7,8-tetrahydroquinazolin-4(3H)-one] reads 224 °C; that for `O=c1[nH]c(-c2ccc(Cl)cc2)nc2c1CCCC2` [formula 7b, 2-(p-Chlorophenyl)-5,6,7,8-tetrahydroquinazolin-4(3H)-one], 255 °C.
The result for `O=c1[nH]c(-c2ccccc2F)nc2c1CCCC2` [formula 7d, 2-(o-Fluorophenyl)-5,6,7,8-tetrahydroquinazolin-4(3H)-one] reads 170 °C; that for `CC1CCc2nc(-c3ccccc3)[nH]c(=O)c2C1` (centres unmarked) [formula 10a, 6-Methyl-2-phenyl-5,6,7,8-tetrahydroquinazolin-4(3H)-one], 237 °C.
With `CCC1CCc2nc(-c3ccccc3)[nH]c(=O)c2C1` (centres unmarked) [formula 10b, 6-Ethyl-2-phenyl-5,6,7,8-tetrahydroquinazolin-4(3H)-one], the melting point came out at 221 °C.
As to `CC1=Cc2c(nc(-c3ccccc3)[nH]c2=O)CC1` [formula 11a, 6-Methyl-2-phenyl-7,8-dihydroquinazolin-4(3H)-one], the melting point was found to be 218 °C.
For `CCC1=Cc2c(nc(-c3ccccc3)[nH]c2=O)CC1` [formula 11b, 6-Ethyl-2-phenyl-7,8-dihydroquinazolin-4(3H)-one], the melting point is 198 °C.
In the case of `O=c1[nH]c(N2CCN(Cc3ccccc3)CC2)nc2c1CC(S(=O)(=O)c1ccccc1)CC2` (centres unmarked) [formula 13b, 2-(4-benzylpiperazin-1-yl)-6-Benzenesulfonyl-5,6,7,8-tetrahydroquinazolin-4(3H)-one], the melting point was > 250 °C.
Regarding `CN1CCN(c2nc3c(c(=O)[nH]2)CC(S(=O)(=O)c2ccccc2)CC3)CC1` (centres unmarked) [formula 13c, 6-Benzenesulfonyl-2-(4-methylpiperazin-1-yl)-5,6,7,8-tetrahydroquinazolin-4(3H)-one], the melting point is > 250 °C.
